Data published in US8952024B2, “Herbicidal pyrimidone derivatives” (E I du Pont de Nemours and Company, priority 2009, dated 2015).
Read-outs that look alike come from different tables or passages of the source.

How the values were obtained:
Experiment in all cases: Test B pre-/postemergence plant response
Assay type in all cases: in vivo
[1] = test system: Italian ryegrass (Lolium multiflorum); details: for pest or weed control at 31 g/ha: 31 g ai/ha; for pest or weed control at 62 g/ha: 62 g ai/ha
From the text: (§1) Seeds of plant species selected from blackgrass (Alopecurus myosuroides), downy bromegrass (Bromus tectorum), green foxtail (Setaria viridis), Italian ryegrass (Lolium multiflorum), wheat (Triticum aestivum), wild oat (Avena fatua), deadnettle (henbit deadnettle, Lamium amplexicaule), galium (catchweed bedstraw, Galium aparine), bermudagrass (Cynodon dactylon), Surinam grass (Brachiaria decumbens), cocklebur (Xanthium strumarium), corn (Zea mays), large crabgrass (Digitaria sanguinalis), woolly cupgrass (Eriochloa villosa), giant foxtail (Setaria faberii), goosegrass (Eleusine indica), johnsongrass (Sorghum halepense), kochia (Kochia scoparia), lambsquarters (Chenopodium album), morningglory (Ipomoea coccinea), nightshade (eastern black nightshade, Solanum ptycanthum), yellow nutsedge (Cyperus esculentus), pigweed (Amaranthus retroflexus), ragweed (common ragweed, Ambrosia elatior), Russian thistle (Salsola kali), soybean (Glycine max), sunflower (common oilseed sunflower, Helianthus annuus) and velvetleaf (Abutilon theophrasti) were planted into a blend of loam soil and sand and treated preemergence with test compounds formulated in a non-phytotoxic solvent mixture which included a surfactant.
(§2) At the same time, plants selected from these crop and weed species and also winter barley (Hordeum vulgare), canarygrass (Phalaris minor), chickweed (Stellaria media) and windgrass (Apera spica-venti) were planted in pots containing Redi-Earth® planting medium (Scotts Company, 14111 Scottslawn Road, Marysville, Ohio 43041) comprising spaghnum peat moss, vermiculite, wetting agent and starter nutrients and treated with postemergence applications of some of the test chemicals formulated in the same manner. Plants ranged in height from 2 to 18 cm (1- to 4-leaf stage) for postemergence treatments.
(§3) Treated plants and controls were maintained in a greenhouse for 13 to 15 days, after which time all treated plants were visually evaluated and compared to controls. Plant response ratings, summarized in Table B, are based on a scale of 0 to 100 where 0 is no effect and 100 is complete control. A dash (-) response means no test result.

[2] = test system: Surinam grass (Brachiaria decumbens); details: for pest or weed control at 31 g/ha: 31 g ai/ha; for pest or weed control at 62 g/ha: 62 g ai/ha
From the text: as §1, §2, §3

[3] = test system: bermudagrass (Cynodon dactylon); details: for pest or weed control at 16 g/ha: 16 g ai/ha; for pest or weed control at 31 g/ha: 31 g ai/ha; for pest or weed control at 62 g/ha: 62 g ai/ha
From the text: as §1, §2, §3

[4] = test system: blackgrass (Alopecurus myosuroides); details: for pest or weed control at 16 g/ha: 16 g ai/ha; for pest or weed control at 16 g/ha / pest or weed control at 31 g/ha / pest or weed control at 62 g/ha: read-out: Plant response rating, Blackgrass; for pest or weed control at 31 g/ha: 31 g ai/ha; for pest or weed control at 62 g/ha: 62 g ai/ha
From the text: as §1, §2, §3

corn (Zea mays) = details: for Corn plant response rating (crop injury, 0 = no effect, 100 = complete kill) at 16 g/ha: 16 g ai/ha; for Corn plant response rating (crop injury, 0 = no effect, 100 = complete kill) at 31 g/ha: 31 g ai/ha; for Corn plant response rating (crop injury, 0 = no effect, 100 = complete kill) at 62 g/ha: 62 g ai/ha
From the text: as §1, §2, §3

[5] = test system: johnsongrass (Sorghum halepense); details: for pest or weed control at 16 g/ha: 16 g ai/ha; for pest or weed control at 16 g/ha / pest or weed control at 31 g/ha / pest or weed control at 62 g/ha: read-out: Plant response rating, Johnsongrass; for pest or weed control at 31 g/ha: 31 g ai/ha; for pest or weed control at 62 g/ha: 62 g ai/ha
From the text: as §1, §2, §3

[6] = test system: lambsquarters (Chenopodium album); details: for pest or weed control at 16 g/ha: 16 g ai/ha; for pest or weed control at 16 g/ha / pest or weed control at 31 g/ha / pest or weed control at 62 g/ha: read-out: Plant response rating, Lambsquarters; for pest or weed control at 31 g/ha: 31 g ai/ha; for pest or weed control at 62 g/ha: 62 g ai/ha
From the text: as §1, §2, §3

[7] = test system: large crabgrass (Digitaria sanguinalis); details: Digitaria sanguinalis; for pest or weed control at 16 g/ha: 16 g ai/ha; for pest or weed control at 31 g/ha: 31 g ai/ha
From the text: as §1, §2, §3

[8] = Lolium multiflorum, pre-emergence, Preemergence, scale 0 to 100 (0 no effect, 100 complete control), read-out: Plant response rating, Ryegrass, Italian
[9] = Preemergence, 125 g ai/ha, 0 to 100 scale
[10] = Urochloa decumbens, pre-emergence, Preemergence, scale 0 to 100 (0 no effect, 100 complete control), read-out: Plant response rating, Surinam Grass
[11] = Cynodon dactylon, pre-emergence, Preemergence, scale 0 to 100 (0 no effect, 100 complete control), read-out: Plant response rating, Bermudagrass
[12] = Alopecurus myosuroides, pre-emergence, 360 h, Preemergence, scale 0 to 100 (0 no effect, 100 complete control)
[13] = Zea mays, pre-emergence, Preemergence, scale 0 to 100 (0 no effect, 100 complete control)
[14] = Sorghum halepense, pre-emergence, Preemergence, scale 0 to 100 (0 no effect, 100 complete control)
[15] = Chenopodium album, pre-emergence, Preemergence, scale 0 to 100 (0 no effect, 100 complete control)
[16] = pre-emergence, Preemergence, scale 0 to 100 (0 no effect, 100 complete control), read-out: Plant response rating, Crabgrass, Large

O=C1CCCC(O)=C1C(=O)c1cnc(-c2ccccc2)n(-c2ccccc2)c1=O [Compound 2, 5-[(2-hydroxy-6-oxo-1-cyclohexen-1-yl)carbonyl]-2,3-diphenyl-4(3H)-pyrimidinone]
pest or weed control at 16 g/ha ([1]; Lolium multiflorum, post-emergence, 16 g ai/ha, Postemergence, 0 to 100 scale, read-out: Plant response rating, Ryegrass, Italian): 0% | pest or weed control at 31 g/ha ([1]; Lolium multiflorum, post-emergence, Postemergence, scale 0 to 100 (0 no effect, 100 complete control), read-out: Plant response rating, Ryegrass, Italian): 0% | pest or weed control at 62 g/ha ([1]; Lolium multiflorum, post-emergence, Postemergence, scale 0 (no effect) to 100 (complete control), 13 to 15 days, read-out: Plant response rating, Ryegrass, Italian): 40% | pest or weed control at 125 g/ha ([1]; Lolium multiflorum, post-emergence, Postemergence, 125 g ai/ha, visual rating after 13 to 15 days, scale 0 (no effect) to 100 (complete control)): 40% | pest or weed control at 31 g/ha [1, 8]: 0% | pest or weed control at 62 g/ha [1, 8]: 0% | Ryegrass, Italian plant response rating [1, 9]: 5 | Surinam Grass plant response rating [2, 9]: 60 | pest or weed control at 16 g/ha ([2]; Urochloa decumbens, post-emergence, 16 g ai/ha, Postemergence, 0 to 100 scale, read-out: Plant response rating, Surinam Grass): 70% | pest or weed control at 31 g/ha ([2]; Urochloa decumbens, post-emergence, Postemergence, scale 0 to 100 (0 no effect, 100 complete control), read-out: Plant response rating, Surinam Grass): 70% | pest or weed control at 62 g/ha ([2]; Urochloa decumbens, post-emergence, Postemergence, scale 0 (no effect) to 100 (complete control), 13 to 15 days, read-out: Plant response rating, Surinam Grass): 75% | pest or weed control at 125 g/ha ([2]; Urochloa decumbens, post-emergence, Postemergence, 125 g ai/ha, visual rating after 13 to 15 days, scale 0 (no effect) to 100 (complete control)): 85% | pest or weed control at 31 g/ha [2, 10]: 15% | pest or weed control at 62 g/ha [2, 10]: 20% | pest or weed control at 16 g/ha ([3]; Cynodon dactylon, post-emergence, Postemergence, 0 to 100 scale, read-out: Plant response rating, Bermudagrass): 40% | pest or weed control at 31 g/ha ([3]; Cynodon dactylon, post-emergence, Postemergence, scale 0 to 100 (0 no effect, 100 complete control), read-out: Plant response rating, Bermudagrass): 80% | pest or weed control at 62 g/ha ([3]; Cynodon dactylon, post-emergence, Postemergence, scale 0 (no effect) to 100 (complete control), 13 to 15 days, read-out: Plant response rating, Bermudagrass): 85% | pest or weed control at 125 g/ha ([3]; Cynodon dactylon, post-emergence, Postemergence, 125 g ai/ha, scale 0 to 100 (0 no effect, 100 complete control), 13 to 15 days, read-out: Plant response rating, Bermudagrass): 90% | pest or weed control at 16 g/ha [3, 11]: 25% | pest or weed control at 31 g/ha [3, 11]: 98% | pest or weed control at 62 g/ha ([3]; Cynodon dactylon, pre-emergence, Preemergence, scale 0 to 100, 0 no effect, 100 complete control, read-out: Plant response rating, Bermudagrass): 100% | Bermudagrass plant response rating [3, 9]: 100 | pest or weed control at 16 g/ha ([4]; Alopecurus myosuroides, post-emergence, 360 h, Postemergence, 0 to 100 scale): 0% | pest or weed control at 31 g/ha ([4]; Alopecurus myosuroides, post-emergence, 360 h, Postemergence, scale 0 to 100 (0 no effect, 100 complete control)): 10% | pest or weed control at 62 g/ha ([4]; Alopecurus myosuroides, post-emergence, 360 h, Postemergence, scale 0 (no effect) to 100 (complete control), 13 to 15 days): 30% | pest or weed control at 125 g/ha ([4]; Alopecurus myosuroides, post-emergence, 360 h, Postemergence, 125 g ai/ha, visual rating after 13 to 15 days, scale 0 (no effect) to 100 (complete control)): 45% | pest or weed control at 16 g/ha [4, 12]: 0% | pest or weed control at 31 g/ha [4, 12]: 0% | pest or weed control at 62 g/ha ([4]; Alopecurus myosuroides, pre-emergence, 360 h, Preemergence, scale 0 to 100, 0 no effect, 100 complete control): 0% | Blackgrass plant response rating [4, 9]: 50 | Corn plant response rating (corn (Zea mays); [9]): 0 | Corn plant response rating (crop injury, 0 = no effect, 100 = complete kill) at 16 g/ha (corn (Zea mays); Zea mays, post-emergence, Postemergence, 0 to 100 scale): 15% | Corn plant response rating (crop injury, 0 = no effect, 100 = complete kill) at 31 g/ha (corn (Zea mays); Zea mays, post-emergence, Postemergence, scale 0 to 100 (0 no effect, 100 complete control)): 15% | Corn plant response rating (crop injury, 0 = no effect, 100 = complete kill) at 62 g/ha (corn (Zea mays); Zea mays, post-emergence, Postemergence, scale 0 (no effect) to 100 (complete control), 13 to 15 days): 25% | Corn plant response rating (crop injury, 0 = no effect, 100 = complete kill) at 125 g/ha (corn (Zea mays); Zea mays, post-emergence, Postemergence, 125 g ai/ha, visual rating after 13 to 15 days, scale 0 (no effect) to 100 (complete control)): 35% | Corn plant response rating (crop injury, 0 = no effect, 100 = complete kill) at 16 g/ha (corn (Zea mays); [13]): 0% | Corn plant response rating (crop injury, 0 = no effect, 100 = complete kill) at 31 g/ha (corn (Zea mays); [13]): 0% | Corn plant response rating (crop injury, 0 = no effect, 100 = complete kill) at 62 g/ha (corn (Zea mays); Zea mays, pre-emergence, Preemergence, scale 0 to 100, 0 no effect, 100 complete control): 0% | Johnsongrass plant response rating [5, 9]: 80 | pest or weed control at 16 g/ha ([5]; Sorghum halepense, post-emergence, Postemergence, 0 to 100 scale): 75% | pest or weed control at 31 g/ha ([5]; Sorghum halepense, post-emergence, Postemergence, scale 0 to 100 (0 no effect, 100 complete control)): 85% | pest or weed control at 62 g/ha ([5]; Sorghum halepense, post-emergence, Postemergence, scale 0 (no effect) to 100 (complete control), 13 to 15 days): 90% | pest or weed control at 125 g/ha ([5]; Sorghum halepense, post-emergence, Postemergence, 125 g ai/ha, visual rating after 13 to 15 days, scale 0 (no effect) to 100 (complete control)): 98% | pest or weed control at 16 g/ha [5, 14]: 0% | pest or weed control at 31 g/ha [5, 14]: 60% | pest or weed control at 62 g/ha ([5]; Sorghum halepense, pre-emergence, Preemergence, scale 0 to 100, 0 no effect, 100 complete control): 65% | pest or weed control at 16 g/ha ([6]; Chenopodium album, post-emergence, Postemergence, 0 to 100 scale): 80% | pest or weed control at 31 g/ha ([6]; Chenopodium album, post-emergence, Postemergence, scale 0 to 100 (0 no effect, 100 complete control)): 90% | pest or weed control at 62 g/ha ([6]; Chenopodium album, post-emergence, Postemergence, scale 0 (no effect) to 100 (complete control), 13 to 15 days): 90% | pest or weed control at 125 g/ha ([6]; Chenopodium album, post-emergence, Postemergence, 125 g ai/ha, visual rating after 13 to 15 days, scale 0 (no effect) to 100 (complete control)): 95% | pest or weed control at 16 g/ha [6, 15]: 100% | pest or weed control at 31 g/ha [6, 15]: 100% | pest or weed control at 62 g/ha ([6]; Chenopodium album, pre-emergence, Preemergence, scale 0 to 100, 0 no effect, 100 complete control): 100% | Lambsquarters plant response rating [6, 9]: 100 | pest or weed control at 16 g/ha ([7]; post-emergence, Postemergence, 0 to 100 scale, read-out: Plant response rating, Crabgrass, Large): 70% | pest or weed control at 31 g/ha ([7]; post-emergence, Postemergence, scale 0 to 100 (0 no effect, 100 complete control), read-out: Plant response rating, Crabgrass, Large): 80% | pest or weed control at 62 g/ha ([7]; post-emergence, Postemergence, 62 g ai/ha, scale 0 (no effect) to 100 (complete control), 13 to 15 days, read-out: Plant response rating, Crabgrass, Large): 85% | pest or weed control at 125 g/ha ([7]; post-emergence, Postemergence, 125 g ai/ha, visual rating after 13 to 15 days, scale 0 (no effect) to 100 (complete control)): 90% | pest or weed control at 16 g/ha [7, 16]: 0% | pest or weed control at 31 g/ha [7, 16]: 15%
